According to patent US20070149400A1, “6-(2-Chloro-4-alkoxyphenyl)triazolopyrimidines, their preparation and their use for controlling harmful fungi, and compositions comprising these compounds” (priority 2003, published 2007):

Test system: Alternaria solani
Test: Activity against early blight of tomato caused by Alternaria solani (protective spray, potted plants)
Format: in vivo
Conditions: 63 ppm active compound, tomato cultivar Goldene Prinzessin, infected next day, assessed after 5 days; untreated plants 90% infected
Protocol: The active compounds were prepared as a stock solution comprising 0.25% by weight of active compound in acetone or DMSO. 1% by weight of the emulsifier Uniperol® EL (wetting agent having emulsifying and dispersing action based on ethoxylated alkylphenols) was added to this solution, and the mixture was diluted with water to the desired concentration. Leaves of potted plants of the cultivar “Goldene Prinzessin” were sprayed to run off point with an aqueous suspension having the concentration of active compounds stated below. The next day, the leaves were infected with an aqueous […] suspension of Alternaria solani in 2% biomalt solution having a density of 0.17×10^6 spores/ml. The plants were then placed in a water-vapor-saturated chamber at temperatures of between 20 and 22° C. After 5 days, the disease on the leaves of the untreated, but infected control plants had developed to such an extent that the infection could be determined visually in %.

SMILES: CCC(C)Nc1c(-c2ccc(OC)cc2Cl)c(Cl)nc2ncnn12 (racemic) [Compound I-3, 5-chloro-6-(2-chloro4-methoxyphenyl)-7-but-2-ylamino-[1,2,4]-triazolo[1,5-a]pyrimidine]
- infection of the leaves, determined visually in %: no infection
